“And” between values parts separate entries of the source, which are not always exact repeats. Equal values may be shown once. Inconclusive results and toxic doses are left out.

For this assay, the system named is P388 leukemia ip, CD2F1 mice, survival T/C. Kind of assay: NCI In Vivo Anticancer Drug Screen. Data for tumor model P388 Leukemia (intraperitoneal) in CD2F1 (CDF1) mice. The settings on record: endpoint: median survival time, higher = longer survival. Summed up:
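Mice carrying the transplanted tumor received test compound or vehicle. Survival was recorded in each group, and the value is the treated-group measurement divided by that of the vehicle-treated control group.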

Where [1] appears, read: dose: 60.0 mg/kg/injection, schedule: Q01DX005 (ip), vehicle: saline with Tween-80.
Where [2] appears, read: dose: 120.0 mg/kg/injection, schedule: Q01DX005 (ip), vehicle: saline with Tween-80.
Where [3] appears, read: dose: 240.0 mg/kg/injection, schedule: Q01DX005 (ip), vehicle: saline with Tween-80.
Where [4] appears, read: dose: 12.5 mg/kg/injection, schedule: Q01DX009 (ip), vehicle: saline.
The mark [5] stands for this setting: dose: 50.0 mg/kg/injection, schedule: Q01DX009 (ip), vehicle: saline.
[6] abbreviates: dose: 50.0 mg/kg/injection, schedule: Q01DX005 (ip), vehicle: Klucel (hydroxypropylcellulose) (HPC).
The mark [7] stands for this setting: dose: 100.0 mg/kg/injection, schedule: Q01DX005 (ip), vehicle: Klucel (hydroxypropylcellulose) (HPC).
Setting [8] is: dose: 200.0 mg/kg/injection, schedule: Q01DX005 (ip), vehicle: Klucel (hydroxypropylcellulose) (HPC).
Setting [9] is: dose: 50.0 mg/kg/injection, schedule: Q01DX005 (ip), vehicle: saline with Tween-80.
[10] abbreviates: dose: 100.0 mg/kg/injection, schedule: Q01DX005 (ip), vehicle: saline with Tween-80.
Setting [11] is: dose: 200.0 mg/kg/injection, schedule: Q01DX005 (ip), vehicle: saline with Tween-80.
[12] abbreviates: dose: 60.0 mg/kg/injection, schedule: Q01DX005 (ip), vehicle: saline.
Setting [13] is: dose: 120.0 mg/kg/injection, schedule: Q01DX005 (ip), vehicle: saline.
The mark [14] stands for this setting: dose: 240.0 mg/kg/injection, schedule: Q01DX005 (ip), vehicle: saline.
[15] abbreviates: dose: 100.0 mg/kg/injection, schedule: Q01DX009 (ip), vehicle: saline with Tween-80.
The mark [16] stands for this setting: dose: 3.13 mg/kg/injection, schedule: Q01DX009 (ip), vehicle: saline.
The mark [17] stands for this setting: dose: 6.25 mg/kg/injection, schedule: Q01DX009 (ip), vehicle: saline.
Where [18] appears, read: dose: 100.0 mg/kg/injection, schedule: Q04DX003 (ip), vehicle: saline.
Setting [19] is: dose: 200.0 mg/kg/injection, schedule: Q04DX003 (ip), vehicle: saline.
Where [20] appears, read: dose: 400.0 mg/kg/injection, schedule: Q04DX003 (ip), vehicle: saline.

`CC1(C)CC(=N/O)/C(=N/O)C(=N\NC(N)=S)/C1`: the T/C is 97 % of control under setting [1], 94 % of control under setting [2] and 97 % of control under setting [3].

`CCCOc1cncc(C)n1`: the T/C under setting [4] was 95 % of control; the T/C (dose: 25.0 mg/kg/injection, schedule: Q01DX009 (ip), vehicle: saline) was 87 % of control; the T/C under setting [5] was 101 % of control and 97 % of control.

For `CC1=N/C(=C\c2cccc(Br)c2)C(=O)O1`, the T/C is 98 % of control under setting [6], 98 % of control under setting [7] and 98 % of control under setting [8].

On to `CN(C)c1ccc(C=NCCC[Si]23OCCN(CCO2)CCO3)cc1`, for which the T/C reads like this: under setting [6], 106 % of control; under setting [7], 100 % of control; under setting [8], 111 % of control.

For the molecule `CCCCCCCCC#CCO`, the T/C is, setting by setting: under setting [1], 86 % of control; under setting [2], 86 % of control.

With `NC(=S)N/N=C/c1c(O)c2cc(Cl)ccc2[nH]c1=O`, the T/C was 106 % of control under setting [9], 112 % of control under setting [10] and 112 % of control under setting [11].

`CCOC(=O)N1C(=O)C=CC1=O`: the T/C was 106 % of control (dose: 18.75 mg/kg/injection, schedule: Q01DX009 (ip), vehicle: saline with Tween-80); 104 % of control (dose: 37.5 mg/kg/injection, schedule: Q01DX009 (ip), vehicle: saline with Tween-80); 105 % of control and 91 % of control (dose: 75.0 mg/kg/injection, schedule: Q01DX009 (ip), vehicle: saline with Tween-80); 113 % of control (dose: 150.0 mg/kg/injection, schedule: Q01DX009 (ip), vehicle: saline with Tween-80).

Turning to `CC(C)(F)C(N)C(=O)O` (stereo not drawn), the T/C by setting is: under setting [12], 101 % of control; under setting [13], 103 % of control; under setting [14], 100 % of control.

For `Brc1ccc(CC[P+](c2ccccc2)(c2ccccc2)c2ccccc2)cc1`, the T/C (dose: 25.0 mg/kg/injection, schedule: Q04DX003 (ip), vehicle: Klucel (hydroxypropylcellulose) (HPC)) is 109 % of control; the T/C (dose: 50.0 mg/kg/injection, schedule: Q04DX003 (ip), vehicle: Klucel (hydroxypropylcellulose) (HPC)) is 101 % of control; the T/C (dose: 100.0 mg/kg/injection, schedule: Q04DX003 (ip), vehicle: Klucel (hydroxypropylcellulose) (HPC)) was 100 % of control and 105 % of control.

Regarding `O=C1NC(=O)C2C(=O)NC(=O)C1C21CCc2ccccc21` (stereo not drawn), the T/C reads like this: under setting [1], 97 % of control; under setting [2], 86 % of control.

As for `C/C(=N\O)C(C)(O)C(C)(C)C` (stereo not drawn), the T/C is, setting by setting: (dose: 25.0 mg/kg/injection, schedule: Q01DX009 (ip), vehicle: saline with Tween-80) 103 % of control; (dose: 50.0 mg/kg/injection, schedule: Q01DX009 (ip), vehicle: saline with Tween-80) 86 % of control; under setting [15], 93 % of control.

For the molecule `Cc1cccc(C(=O)CC[N+](C)(C)C)c1`, the T/C reads like this: under setting [16], 111 % of control; under setting [17], 109 % of control; under setting [4], 94 % of control.

As to `Brc1cc(-c2ccccc2)ccc1OCC1CO1` (stereo not drawn), the T/C was 101 % of control under setting [6], 108 % of control under setting [7] and 97 % of control under setting [8].

`O=S(=O)(O)c1ccc(CCCCCCl)cc1`: the T/C was 100 % of control under setting [18], 95 % of control under setting [19] and 86 % of control under setting [20].

In the case of `C=C(Cl)C(=NC(C)(C)C)Nc1ccccc1Cl`, the T/C is 100 % of control (dose: 6.25 mg/kg/injection, schedule: Q01DX005 (ip), vehicle: saline); 117 % of control (dose: 12.5 mg/kg/injection, schedule: Q01DX005 (ip), vehicle: saline); 124 % of control (dose: 25.0 mg/kg/injection, schedule: Q01DX005 (ip), vehicle: saline); 114 % of control and 120 % of control (dose: 50.0 mg/kg/injection, schedule: Q01DX005 (ip), vehicle: saline); 118 % of control (dose: 100.0 mg/kg/injection, schedule: Q01DX005 (ip), vehicle: saline).

Consider `CCOC(=O)NC(c1ccc(C(NC(=O)OCC)P(=O)(O)NC23CC4CC(CC(C4)C2)C3)cc1)P(=O)(O)NC12CC3CC(CC(C3)C1)C2` (stereo not drawn), for which the T/C reads like this: under setting [1], 105 % of control; under setting [2], 105 % of control; under setting [3], 98 % of control.

`CC1CC(c2ccccc2)C(c2ccccc2Cl)C(=O)O1` (stereo not drawn): the T/C runs as follows: (dose: 100.0 mg/kg/injection, schedule: Q04DX002 (ip), vehicle: Klucel (hydroxypropylcellulose) (HPC)) 101 % of control; (dose: 200.0 mg/kg/injection, schedule: Q04DX002 (ip), vehicle: Klucel (hydroxypropylcellulose) (HPC)) 96 % of control; (dose: 400.0 mg/kg/injection, schedule: Q04DX002 (ip), vehicle: Klucel (hydroxypropylcellulose) (HPC)) 96 % of control.

As for `Nc1cccc[n+]1CCCCCC[n+]1ccccc1N`, the T/C by setting is: under setting [16], 102 % of control; under setting [17], 103 % of control.

For the molecule `COC(=O)CC1C=CC(OC)[C@@]2(C)C(=O)C(OC)=CC(=O)[C@@H]12` (stereo partly drawn), the T/C reads like this: under setting [1], 101 % of control; under setting [2], 105 % of control; under setting [3], 91 % of control.

`CCCCc1c(O)c(N=NC(N)=S)c2ccccc2c1O`: the T/C is, setting by setting: under setting [9], 95 % of control; under setting [10], 94 % of control; under setting [11], 91 % of control.

Consider `COC(=O)C1=COC(C)C2CN3CCC4(C(=O)Nc5ccccc54)C3CC12` (stereo not drawn), for which the T/C was 101 % of control under setting [1] and 101 % of control under setting [2].

In the case of `C=C1C(O)C2(O)OCC34C(CC5C(C)=CC(=O)C(O)C5(C)C23)OC(=O)C(O)C14O` (stereo not drawn), the T/C under setting [17] is 93 % of control.

On to `CCCc1cc(=O)[nH]c(SCC(=O)O)n1`, for which the T/C reads like this: under setting [1], 100 % of control; under setting [2], 101 % of control; under setting [3], 99 % of control.

For the molecule `CC1=CCC(C(C)C)C=C1` (stereo not drawn), the T/C runs as follows: under setting [15], 100 % of control; under setting [18], 105 % of control; under setting [19], 100 % of control; under setting [20], 105 % of control.

On to `O=C1/C(=C/c2ccccc2)CSC/C1=C\c1ccccc1`, for which the T/C by setting is: under setting [6], 91 % of control; under setting [7], 86 % of control.

With `CC(=O)NC1c2ccccc2CCC1OC(C)=O` (stereo not drawn), the T/C is, setting by setting: under setting [9], 99 % of control; under setting [10], 99 % of control; under setting [11], 99 % of control.

Turning to `c1ccc2c(c1)C1OC2c2c1ccc1ccccc21` (stereo not drawn), the T/C is 97 % of control under setting [9], 90 % of control under setting [10] and 88 % of control under setting [11].

For the molecule `O=C(O)CNC1CCCCC1`, the T/C runs as follows: under setting [12], 95 % of control; under setting [13], 92 % of control; under setting [14], 87 % of control.

As to `OCC1OC([Se])C(O)C(O)C1O.[CH3][Sb][CH3]` (stereo not drawn), the T/C runs as follows: under setting [1], 112 % of control; under setting [2], 104 % of control.

Take `C[Si](C)(C)c1cc[c]([Sn]([CH3])([CH3])[CH3])cc1`: the T/C is, setting by setting: under setting [5], 105 % of control; (dose: 100.0 mg/kg/injection, schedule: Q01DX009 (ip), vehicle: saline) 101 % of control; (dose: 200.0 mg/kg/injection, schedule: Q01DX009 (ip), vehicle: saline) 93 % of control.

In the case of `ClC(Cl)(Cl)C(c1cccs1)c1cccs1`, the T/C reads like this: (dose: 50.0 mg/kg/injection, schedule: Q01DX009 (ip), vehicle: Klucel (hydroxypropylcellulose) (HPC)) 103 % of control; (dose: 100.0 mg/kg/injection, schedule: Q01DX009 (ip), vehicle: Klucel (hydroxypropylcellulose) (HPC)) 100 % of control; (dose: 200.0 mg/kg/injection, schedule: Q01DX009 (ip), vehicle: Klucel (hydroxypropylcellulose) (HPC)) 109 % of control; (dose: 400.0 mg/kg/injection, schedule: Q01DX009 (ip), vehicle: Klucel (hydroxypropylcellulose) (HPC)) 104 % of control.

As for `S=C1N(c2ccc(Cl)cc2)C2=C(N=Nc3cc(Cl)ccc3Cl)C(=Nc3ccccc3S2)N1c1ccccn1`, the T/C runs as follows: (dose: 15.0 mg/kg/injection, schedule: Q01DX005 (ip), vehicle: saline with Tween-80) 100 % of control; (dose: 30.0 mg/kg/injection, schedule: Q01DX005 (ip), vehicle: saline with Tween-80) 110 % of control; under setting [1], 106 % of control and 110 % of control.

Source of the values: PubChem BioAssay AID330 (DTP/NCI, 2004).
